Data set [1] has as its system M579-A2-luc melanoma tumour cells. As to the kind of experiment: Luciferase-based TNF killing assay. In kind it is cell-based, human. Conditions: TNF 10 ng/mL; inhibitor between about 10 and 100 nM. How it is done: PANC1-luc is an HLA-A2.1+ luciferase-expressing pancreatic adenocarcinoma (PDAC) tumour cell line, and M579-A2-luc is an HLA-A2.1+ luciferase-expressing melanoma tumour cell line.
After lysis, luciferase assay buffer is added and immediately the luciferase intensity was measured by using the TECAN-Spark microplate reader.

In a further data set the target is SRC (GST-HIS-tag) (Homo sapiens (Human), UniProt P12931). In kind it is biochemical.
Data set [2] has as its target T1, SIK3 (Homo sapiens (Human), UniProt Q9Y2K2). Conditions: read-out: SIK3 IC50.
For data set [3] the following is noted: microsomes.
The conditions of data set [4]: microsomes. The source holds these as a separate data set.
The nature of data set [5]: in vitro. To be noted: human, microsomes.
Data set [6] is described as follows: in vitro. To be noted: mouse, microsomes.
Data set [7] is described as follows: Human plasma-protein binding. To be noted: for recovery at 4 h: human, plasma.
A short description of data set [8]: Murine plasma protein binding. To be noted: for recovery at 4 h: mouse, plasma.
The conditions of data set [9]: mouse, in vivo, po, 30 mg/kg.
The subject of data set [10] is MC38 murine tumour cell line. The data set is described as follows: TNF-sensitised cell viability assay (CellTiter-Glo). To be noted: read-out: MC38 IC50 (nM at 100 ng/mL TNF); 100 ng/mL TNF, 72 h.
Data set [11] deals with HDAC4 phosphorylation in PANC-1 cells. The data set is described as follows: HDAC4 phosphorylation (Meso Scale Discovery assay). Conditions: 10 ng/mL rHuTNF, 3 h (Table 9C).
The subject of data set [12] is NFKB activity in PANC-1 cells. As to the kind of experiment: TNF-induced NFKB activity (NFKB-dependent luciferase reporter). Conditions: 10 ng/ml rHuTNF, PANC-1 reporter cells (Table 9C).
Data set [13] is described as follows: Human hepatocyte stability. In kind it is in vitro ADME. To be noted: human, hepatocytes; for half-life: read-out: Human hepatocyte stability, Half-life; for microsomal CLint: read-out: Human hepatocyte stability, Intrinsic clearance.
A short description of data set [14]: Mouse hepatocyte stability. It is filed as in vitro ADME. Conditions: hepatocytes; for microsomal CLint: read-out: Mouse hepatocyte stability, Intrinsic clearance.
A further data set deals with SIK2 (Homo sapiens (Human), UniProt Q9H0K1). The data set is described as follows: SIK2 kinase inhibition (IC50). To be noted: read-out: Kinase: IC50 (nM) SIK2.
Data set [15] concerns the target T1, SIK3. The data set is described as follows: SIK3 kinase inhibition (IC50).
For another data set, the target named is MDR1 (P-gp) (Homo sapiens (Human), UniProt P08183). The data set is described as follows: MDR1-MDCK effective efflux assay. To be noted: dog; for Papp: MDCK-MDR1; for efflux ratio: Table 5.1B.
Data set [16] is described as follows: MDCK wild type permeability/efflux. To be noted: dog.
Data set [17] in a line: Screening PK in mice after 30 mg/kg po. Conditions: for Cmax at 2 h / concentration at 6 h: mouse, plasma, po, 30 mg/kg.
Data set [18] deals with human breast skin explants. The data set is described as follows: Human skin explant eumelanisation.
Setting [19] is: MDCK-MDR1, MDCK-MDR1 cells, Mean Efflux Ratio (MDR1).
Setting [20] is: MDCK-MDR1, P-gP driven efflux ratio (MDR1/wt).
The mark [21] stands for this setting: Free plasma concentration after 6 h (nM), mice, 30 mg/kg po, 6 h.
The mark [22] stands for this setting: Plasma concentration after 6 h (nM), mice, 30 mg/kg po, 6 h.

Where two headings read alike, the source gives them in different places.

With `Cc1nc(Nc2ncc(C(=O)Nc3c(Cl)cccc3Br)s2)cc(N2CCN(CCO)CC2)n1` [Compound B1, N-(2-bromo-6-chlorophenyl)-2-((6-(4-(2-hydroxyethyl)piperazin-1-yl)-2-methylpyrimidin-4-yl)amino)thiazole-5-carboxamide], the “cytotoxicity in the presence of TNF compared to inhibitor alone” value (from here on “cytotoxicity … compared to inhibitor alone”) in data set [1] is recorded as “increased cytotoxicity”.
Turning to `COc1c(F)cccc1NC(=O)c1cnc(Nc2cc(N3CCN(CCO)CC3)nc(C)n2)s1` [Compound B4, N-(3-fluoro-2-methoxyphenyl)-2-((6-(4-(2-hydroxyethyl)piperazin-1-yl)-2-methylpyrimidin-4-yl)amino)thiazole-5-carboxamide], in data set [1], the “cytotoxicity … compared to inhibitor alone” value was “fails to exhibit cytotoxicity”.
Turning to `CCOc1cccc(Cl)c1NC(=O)c1cnc(Nc2cc(N3CCN(CCO)CC3)nc(C)n2)s1` [Compound B8, N-(2-chloro-6-ethoxyphenyl)-2-((6-(4-(2-hydroxyethyl)piperazin-1-yl)-2-methylpyrimidin-4-yl)amino)thiazole-5-carboxamide], the “cytotoxicity … compared to inhibitor alone” value in data set [1] is listed as “fails to exhibit cytotoxicity”.
Turning to `Cc1nc(Nc2ncc(C(=O)Nc3c(C)ccnc3C)s2)cc(N2CCN(CCO)CC2)n1` [Compound C1, N-(2,4-dimethylpyridin-3-yl)-2-((6-(4-(2-hydroxyethyl)piperazin-1-yl)-2-methylpyrimidin-4-yl)amino)thiazole-5-carboxamide], the values for the IC50 against SRC (GST-HIS-tag) and on SIK3 [2] were less than 1.5 nM and 867 nM, respectively.
With `Cc1nc(Nc2ncc(C(=O)Nc3c(C)cncc3Cl)s2)cc(N2CCN(CCO)CC2)n1` [Compound C4, N-(3-chloro-5-methylpyridin-4-yl)-2-((6-(4-(2-hydroxyethyl)piperazin-1-yl)-2-methylpyrimidin-4-yl)amino)thiazole-5-carboxamide], the IC50 at SRC (GST-HIS-tag) is less than 1.5 nM; at SIK3 [2] it was 677 nM. The same compound showed a Human liver microsomal stability, Intrinsic clearance in data set [3] of 115 µL/min/mg. Further, in [4], the Mouse liver microsomal stability, Intrinsic clearance (L/min/mg) came out at 38 µL/min/mg. Further, the half-life in “in vitro [5]” amounted to 12 min; in the data set “in vitro [6]”, 37 min. For the same compound, in data set [7] (Table 5A), the “Human plasma-protein binding, Percentage unbound (%)” value is 2%. In addition, the “Murine plasma protein binding, Percentage unbound (%)” value in data set [8] (Table 5A) amounted to 14%.
For the compound `Cc1nc(Nc2ncc(C(=O)Nc3c(C)cncc3C)s2)cc(N2CCN(CCO)CC2)n1` [Compound C5, N-(3,5-dimethylpyridin-4-yl)-2-((6-(4-(2-hydroxyethyl)piperazin-1-yl)-2-methylpyrimidin-4-yl)amino)thiazole-5-carboxamide], the IC50 against SRC (GST-HIS-tag) is less than 1.5 nM; on SIK3 [2], 340 nM.
As to `Cc1nc(Nc2ncc(C(=O)Nc3cccnc3C)s2)cc(N2CCN(CCO)CC2)n1` [Compound C6, 2-((6-(4-(2-hydroxyethyl)piperazin-1-yl)-2-methylpyrimidin-4-yl)amino)-N-(2-methylpyridin-3-yl)thiazole-5-carboxamide], the IC50 is less than 1.5 nM at SRC (GST-HIS-tag) and 987 nM at SIK3 [2].
Take `Cc1nc(NCCO)cc(Nc2ncc(C(=O)Nc3c(Cl)ccnc3C)s2)n1` [Compound C11, N-(4-chloro-2-methylpyridin-3-yl)-2-((6-((2-hydroxyethyl)amino)-2-methylpyrimidin-4-yl)amino)thiazole-5-carboxamide]: the IC50 was less than 1.5 nM against SRC (GST-HIS-tag) and 1510 nM on SIK3 [2].
In the case of `Cc1nc(Nc2ncc(C(=O)Nc3c(Cl)csc3C)s2)cc(N2CCN(CCO)CC2)n1` [Compound D1], in data set [9], the “Free concentration (nM) at 2 hours” value turned out to be 80 nM, the “Free concentration (nM) at 6 hours” value is listed as 4 nM and the “Free concentration (nM) at 12 hours” value came out at 2.14 nM. Moreover, the IC50 in [10] is less than 200 nM.
In the case of `Cc1nc(Nc2ncc(C(=O)Nc3c(Cl)csc3Cl)s2)cc(N2CCN(CCO)CC2)n1` [Compound D7], in [9], the “Free concentration (nM) at 2 hours” value was 43 nM, the “Free concentration (nM) at 6 hours” value is 5 nM and the “Free concentration (nM) at 12 hours” value was found to be 1.10 nM.
For `Cc1nc(Nc2ncc(C(=O)Nc3c(C)csc3Cl)s2)cc(N2CCN(C)CC2)n1` [Compound D9], on SIK3 [2], the IC50 was approximately 60 nM. Also, in data set [9], the “Free concentration (nM) at 2 hours” value stood at 44 nM, the “Free concentration (nM) at 6 hours” value came to 8 nM and the “Free concentration (nM) at 12 hours” value is 2.71 nM. Further, the “Inhibition of HDAC4 phosphorylation” value in [11] is on record as “+”. In [12], the “Inhibition of NFKB activity” value is recorded as “+”.
In the case of `Cc1nc(Nc2ncc(C(=O)Nc3c(CF)csc3Cl)s2)cc(N2CCN(CCO)CC2)n1` [Compound E3, N-(2-chloro-4-(fluoromethyl)thiophen-3-yl)-2-((6-(4-(2-hydroxyethyl)piperazin-1-yl)-2-methylpyrimidin-4-yl)amino)thiazole-5-carboxamide], the half-life came to 34 min in [13], 63 min in data set [14], 16 min in the data set “in vitro [5]” and 18 min in the data set “in vitro [6]”. Further, the microsomal CLint in [13] came out at 41 µL/min/mg; in data set [14], 22 µL/min/mg; in the data set “in vitro [5]”, 86 µL/min/mg; in “in vitro [6]”, 76 µL/min/mg. The IC50 was less than 10 nM at SIK2 and 20 to 50 nM at SIK3 [15]. Further, in data set [7] (Table 5.1A), the “Human plasma-protein binding, Percentage unbound (%)” value worked out at 2%. Also, the recovery at 4 h in data set [7] was 76%; in data set [8], 89%. Also, the “Murine plasma protein binding, Percentage unbound (%)” value in [8] (Table 5.1A) is listed as 4%. Moreover, the values for the Papp (at MDR1 (P-gp); in [16]) were 2 ×10⁻⁶ cm/s and 7 ×10⁻⁶ cm/s, respectively. Moreover, the efflux ratio on MDR1 (P-gp) (setting [19]) was found to be 53; at MDR1 (P-gp) (setting [20]), 12; in data set [16], 4.3. For the same compound, the concentration in data set [17] peaked (Cmax at 2 h) at 889 ng/mL. The concentration at 6 h in [17] (setting [21]) was 3.7 nM; in [17] (setting [22]), 73 nM.
With `Cc1nc(Nc2ncc(C(=O)Nc3c(CF)csc3Cl)s2)cc(N2CCCN(C)CC2)n1` [Compound E11, N-(2-chloro-4-(fluoromethyl)thiophen-3-yl)-2-((2-methyl-6-(4-methyl-1,4-diazepan-1-yl)pyrimidin-4-yl)amino)thiazole-5-carboxamide], the half-life in [13] amounted to 26 min; in data set [14] it was 56 min; in “in vitro [5]”, 19 min; in “in vitro [6]”, 21 min. In addition, the microsomal CLint came to 55 µL/min/mg in data set [13], 25 µL/min/mg in data set [14], 72 µL/min/mg in “in vitro [5]” and 66 µL/min/mg in the data set “in vitro [6]”. The IC50 on SIK2 is less than 10 nM; at SIK3 [15] it was 20 to 50 nM. Moreover, in data set [7] (Table 5.1A), the “Human plasma-protein binding, Percentage unbound (%)” value is on record as 3%. The figures for the recovery at 4 h in data set [7] and in data set [8] were 77% and 98%, respectively. The “Murine plasma protein binding, Percentage unbound (%)” value in [8] (Table 5.1A) is 1%. Also, the figures for the Papp (at MDR1 (P-gp); in data set [16]) were 3 ×10⁻⁶ cm/s and 8 ×10⁻⁶ cm/s, respectively. The results for the efflux ratio (at MDR1 (P-gp) (setting [19]); on MDR1 (P-gp) (setting [20]); in data set [16]) were 61, 24 and 2.6, respectively. Moreover, in data set [17] (mice, 30 mg/kg po, 6 h), the “fold improvement of free serum concentration over C7” value came to 2 fold. In addition, the “fold improvement of total serum concentration over C7” value in data set [17] (mice, 30 mg/kg po, 6 h) is reported as 3.1 fold. In addition, the Cmax at 2 h in data set [17] worked out at 487 ng/mL. In addition, the values for the concentration at 6 h in [17] (setting [21]) and in data set [17] (setting [22]) were 7.7 nM and 219 nM, respectively.
Consider `COc1ccc(N(C(=O)Nc2c(C)cccc2C)c2cc(Nc3ccc(N4CCN(C)CC4)cc3)ncn2)c(OC)c1` [HG 9-91-01], for which the “gross pigmentation of human skin explants, passive topical application” value in data set [18] (8 days (1×/day)) is listed as “no significant gross pigmentation”. In addition, in data set [18] (compared to control), the “melanin content (Fontana-Masson staining), passive application” value is given as “marginally increased melanin”. For the same compound, the “gross pigmentation of human skin explants, mechanical application” value in [18] (rubbing via an applicator) was “induces significant gross pigmentation”.

The values above are taken from US20230348453A1, “HALOGENATED-HETEROARYL AND OTHER HETEROCYCLIC KINASE INHIBITORS, AND USES THEREOF” (iOmx Therapeutics AG, priority 2020, published 2023).
